Experimental data as given in patent publication US20090131481A1, “Transcription Factor Modulating Compounds and Methods of Use Thereof” (Paratek Pharmaceuticals, Inc., published 2009).

Experiments:
[1] = target: LcrF (VirF) (Yersinia pestis, UniProt P28808); assay: biochemical; type: binding, Y. pseudotuberculosis; conditions: EC50 for inhibition of LcrF(VirF)-DNA binding
[2] = tested on: Y. pseudotuberculosis; assay: microbe, parasite or virus in culture; conditions: Yersinia pseudotuberculosis, J774, read-out: % Cytotoxicity
[3] = tested on: P. aeruginosa; assay: P. aeruginosa cytotoxicity whole cell assay (J774 cells, LDH release); conditions: relative to vehicle treated cells infected with wild type P. aeruginosa
[4] = target: T1, ExsA (Pseudomonas aeruginosa, UniProt P26993); assay: Chemiluminescence-based ExsA-DNA binding assay; parameters: species or system P. aeruginosa; conditions: Table 7, cell-free system; read-out: ExsA EC50
T1 construct: made in house
T1 sequence (P26993 1-278): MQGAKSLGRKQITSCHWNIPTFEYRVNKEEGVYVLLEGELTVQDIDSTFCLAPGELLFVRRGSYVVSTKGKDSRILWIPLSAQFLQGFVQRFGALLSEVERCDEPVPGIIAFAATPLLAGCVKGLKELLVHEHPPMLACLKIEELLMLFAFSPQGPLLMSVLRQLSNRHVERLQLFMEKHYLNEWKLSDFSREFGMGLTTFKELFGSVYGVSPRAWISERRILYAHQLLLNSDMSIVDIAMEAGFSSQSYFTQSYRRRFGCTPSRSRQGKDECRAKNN

Sequence of LcrF (VirF) (P28808 whole entry, looked up): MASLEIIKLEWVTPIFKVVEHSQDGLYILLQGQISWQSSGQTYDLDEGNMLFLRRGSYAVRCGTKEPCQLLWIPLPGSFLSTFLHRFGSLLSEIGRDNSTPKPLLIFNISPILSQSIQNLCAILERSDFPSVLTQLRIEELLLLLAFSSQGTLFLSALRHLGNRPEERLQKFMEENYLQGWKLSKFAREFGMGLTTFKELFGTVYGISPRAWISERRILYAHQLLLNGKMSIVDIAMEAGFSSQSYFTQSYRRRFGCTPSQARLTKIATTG

Structure (SMILES)	EC50 [1] [µM]	activity at 50 µg/mL [2] [%]	Cytotoxicity at 50 μg/mL Pseudomonas [3]	EC50 [4] [µM]
O=C(/C=C/c1ccc(-n2cncn2)cc1)Nc1ccc(-c2nc3ccc([N+](=O)[O-])cc3n2O)cc1 [EU, (E)-N-[4-(1-Hydroxy-6-nitro-1H-benzoimidazol-2-yl)-phenyl]-3-(4-[1,2,4]triazol-1-yl-phenyl)-acrylamide]	> 25	75 to 99	** (reduced P. aeruginosa cytotoxicity below 75% of untreated, wild type levels at 50 mg/mL)	–
COc1cc(NC(=O)/C=C/c2ccc(F)cc2)ccc1-c1nc2ccc([N+](=O)[O-])cc2n1O [ET]	10 to 25	< 75	* (reduced P. aeruginosa cytotoxicity to 99-75% of untreated, wild type levels at 50 mg/mL)	10 to 25
CC(=O)c1ccc(C(=O)Nc2ccc(-c3nc4ccc([N+](=O)[O-])cc4n3O)cc2F)cc1 [EM, 4-Acetyl-N-[2-fluoro-4-(1-hydroxy-6-nitro-H-benzoimidazol-2-yl)-phenyl]-benzamide]	10 to 25	< 75	* (reduced P. aeruginosa cytotoxicity to 99-75% of untreated, wild type levels at 50 mg/mL)	–
CN(C)C(=O)c1ccc(C(=O)Nc2ccc(-c3nc4ccc([N+](=O)[O-])cc4n3O)cc2)cc1 [FB]	–	< 75	* (reduced P. aeruginosa cytotoxicity to 99-75% of untreated, wild type levels at 50 mg/mL)	> 25
O=C(/C=C/c1ccc(F)cc1)Nc1ccc(-c2nc3ccc([N+](=O)[O-])cc3n2O)nc1 [DZ]	10 to 25	< 75	* (reduced P. aeruginosa cytotoxicity to 99-75% of untreated, wild type levels at 50 mg/mL)	–
COc1ccc(/C=C/C(=O)Nc2ccc(-c3nc4ccc([N+](=O)[O-])cc4n3O)cc2)c(OC)c1 [AK]	> 25	75 to 99	* (reduced P. aeruginosa cytotoxicity to 99-75% of untreated, wild type levels at 50 mg/mL)	–
O=C(Nc1ccc(-c2nc3ccc([N+](=O)[O-])cc3n2O)cc1)/C(=C/c1ccccc1)c1ccccc1 [CQ]	–	< 75	** (reduced P. aeruginosa cytotoxicity below 75% of untreated, wild type levels at 50 mg/mL)	10 to 25
N#Cc1ccc2nc(-c3ccc(NC(=O)/C=C/c4ccccc4)cc3)n(O)c2c1 [CL]	10 to 25	< 75	* (reduced P. aeruginosa cytotoxicity to 99-75% of untreated, wild type levels at 50 mg/mL)	10 to 25
O=C(/C=C/c1ccc(F)cc1)Nc1ccc(-c2nc3ccc([N+](=O)[O-])cc3n2O)c(F)c1 [EI]	–	75 to 99	* (reduced P. aeruginosa cytotoxicity to 99-75% of untreated, wild type levels at 50 mg/mL)	10 to 25
CC(=O)c1ccc(C(=O)Nc2ccc(-c3nc4ccc([N+](=O)[O-])cc4n3O)nc2)cc1 [DR]	> 25	< 75	* (reduced P. aeruginosa cytotoxicity to 99-75% of untreated, wild type levels at 50 mg/mL)	10 to 25
CCOP(=O)(COn1c(-c2ccc(NC(=O)/C=C/c3ccc(F)cc3)cc2)nc2ccc([N+](=O)[O-])cc21)OCC [ED, (2-{4-[(E)-3-(4-Fluoro-phenyl)-acrloylamino]-phenyl}-6-nitro-benzoimidazol-1-yloxymethyl)-phosphonic acid diethyl ester]	> 25	< 75	* (reduced P. aeruginosa cytotoxicity to 99-75% of untreated, wild type levels at 50 mg/mL)	< 10
COc1cc(NC(=O)c2ccc(C(C)=O)cc2)ccc1-c1nc2ccc([N+](=O)[O-])cc2n1O [ES]	> 25	< 75	** (reduced P. aeruginosa cytotoxicity below 75% of untreated, wild type levels at 50 mg/mL)	10 to 25
CC(=O)c1ccc(C(=O)Nc2ccc(-c3nc4ncc([N+](=O)[O-])cc4n3O)cc2)cc1 [DJ]	10 to 25	< 75	* (reduced P. aeruginosa cytotoxicity to 99-75% of untreated, wild type levels at 50 mg/mL)	–
O=C(/C=C/c1ccc(F)c(CP(=O)(O)O)c1)Nc1ccc(-c2nc3ccc([N+](=O)[O-])cc3n2O)cc1 [DX]	10 to 25	< 75	* (reduced P. aeruginosa cytotoxicity to 99-75% of untreated, wild type levels at 50 mg/mL)	10 to 25
O=C(C/C=C/c1ccccc1)Nc1ccc(-c2nc3ccc([N+](=O)[O-])cc3n2O)cc1 [CY]	> 25	< 75	* (reduced P. aeruginosa cytotoxicity to 99-75% of untreated, wild type levels at 50 mg/mL)	–
